In patent publication US9624491B2, “Methods and compositions for the detection and treatment of cancer involving miRNAs and miRNA inhibitors and targets” (Memorial Sloan Kettering Cancer Center, priority 2010, dated 2017):

Tests used:
[1] = test system: PTEN, BCL2L11, PHF6, IKZF1, NF1, FBXW7; test: 3′UTR reporter, quantitative PCR and immunoblot assays of tumor suppressor genes in murine leukemias; assay type: cell-based; details: murine T-ALLs expressing NOTCH1 and miRNA, mRNA, protein
Procedure: Immunoblots of whole cell lysates were performed as described (Wendel, et al., 2004). Antibodies were against Bim/Bcl2l11 (AAP-330, 1:1000, Assay Designs), Nf1 (sc67, 1:100, Santa Cruz), Cdc4/Fbxw7 (ab7405, 1:500, Abeam), Ikzf1 (sc-13039, 1:500, Santa Cruz), Phf6 (NB100-79861, 1:1000, Novus Biologicals), Pten (9559, 1:1000, Cell Signaling), tubulin (1:5000; Sigma, B-5-1-2) and actin (1:5000; Sigma, AC-15).
Total RNA and miRNA-enriched RNA was extracted using the Allprep DNA/RNA/Protein and miRNeasy Mini kits. Pathological diagnosis was by expert hematopathologists at Weill Cornell Medical Center. cDNA synthesis, PCR and analysis by the ΔΔ Ct method were as described (Mavrakis, et al., 2008) and utilized Taqman Gene Expression Assays: Bcl2l11 (Mm00437796_m1), BCL2L11 (Hs00197982_m1), Pten (Mm01212532_m1), PTEN (Hs02621230_s1), Nf1 (Mm00812430_m1), NF1 (Hs01035104_m1), Ikzf1 (Mm01187878_m1), IKZF1 (Hs00172991_m1), Fbxw7 (Mm00504452_m1), FBXW7 (Hs00217794_m1), Phf6 (Mm00804415_m1), and Mouse GAPD (GAPDH) (4352932, Applied Biosystems). Expression was normalized to RNU6B (001093, Applied Biosystems).
The mouse FBXW7 (bp 2793-4139; acc. no. NM_001177773), human NF1 (bp 10033-10666; acc. no NM_000267), human PHF6 (bp position 3271-4299; acc. no. NM_001015877) and Bim (bp. 3155-4773; acc. no. NM_009754) 3′UTR fragments were generated by PCR and cloned into the psi-CHECK-2 vector (Promega) with the exception of the IKZF1 3′UTR, which was purchased from Genecopoeia (cat no. HmiT000397b, by 2343-4471 of UTR). The assays were performed as described (Xiao, et al., 2008).

[2] = test system: FL5-12 lymphocytes; test: IL3 depletion competition assay for cytokine-independent survival of FL5-12 lymphocytes; assay type: cell-based, murine
Procedure: An established in vitro assay of hematopoietic transformation (Plas, Talapatra, Edinger, Rathmell, & Thompson, 2001) was used to identify the key oncogenic activities within the 17˜92 cluster and its paralogues. All miRNAs representing families of unique seed sequences, specifically miR-17, miR-18a, miR-19b-1 (miR-19), miR-20a, miR-106a, miR-106b and miR-25 were tested (FIG. 1a). The assay is based on the IL3 dependence of FL5-12 lymphocytes, which undergo apoptosis when removed from IL3. In competition experiments, FL5-12 cells were partially transduced with GFP plus individual miRNAs or empty vector and these mixed populations were monitored by fluorescence-activated cell sorting (FACS) for changes in their relative proportions (FIG. 1b).
(§1) FL5-12 murine lymphocytes, IL3 depletion studies and viral transductions were as described (Mavrakis, et al., 2008) (Plas, Talapatra, Edinger, Rathmell, & Thompson, 2001). Cell cycle and cell death assays based on uptake of DNA staining dye (LDS751) using Cell cycle and Viacount assays from Guava Technologies were performed as reported (Mavrakis, et al., 2008). The retroviral vectors are based on murine stem cell virus (MSCV) and include the miRNA expression vectors encoding miRs 17, 18a, 19b-1 (miR-19), 106a, 106b, 25 (He, et al., 2005), the vectors encoding Notch-ICN (a gift from W. Pear) (Pear, et al., 1996) and Bcl2 (Wendel, et al., 2004), the individual shRNA vectors (FIG. 17) and the library vector (MRP) (FIGS. 18a and b). miRNA inhibitor oligonucleotides (antagomirs) MZIP19a-PA-1, MZIP19b-PA-1, and scrambled control (MZIP000-PA-1) were from System Biosciences.
The primary screen is based on c-MYC-induced apoptosis in MEFs (Evan, et al., 1992). MEFs were transduced with c-MYC and the miRNA library and cultured in puromycin to select for homogeneous c-MYC expression; apoptosis was triggered by diluting serum from 10% to 0.1%. Surviving cells remained adherent and were collected for DNA isolation, PCR amplification of the integrated miRNA library constructs, sub-cloning into pGEM-T vector, bacterial transformation, and sequence identification of ˜100 colonies. A secondary library was constructed by sub-cloning all miRNAs from the primary screen into an MSCV construct. The secondary screen is based on the IL-3 dependence of FL5-12 lymphocytes in vitro (Mavrakis, et al., 2010), (Plas, Talapatra, Edinger, Rathmell, & Thompson, 2001). FL5-12 cells were partially transduced with the pooled, GFP-tagged library and selected by IL-3 depletion. miRNAs were identified as above. Individual miRNAs were subsequently validated in the same FL5-12 assay and in vivo.

[3] = test system: FL5-12/Bcl2 cells; test: Complementation studies in FL5-12 cells stably expressing Bcl2; assay type: cell-based, murine; details: shifted from complete to IL3 deficient media
Procedure: The relative contribution of the novel miR-19 targets was assessed. The pro-apoptotic BIM protein opposes BCL2 and is an important regulator of lymphocyte survival (Bouillet, et al., 1999). To assess whether miR-19 has Bim-independent effects, complementation studies were conducted with FL5-12 cells engineered to stably express Bcl2 (FL5-12/Bcl2 cells). […] Similarly, expression of miR-19 was associated with continued proliferation in the presence of metformin-activated AMP kinase or expression of Pten or Pp2r5e (FIG. 16).

[4] = test system: FL5-12 cells; test: Cell cycle and cell death (viability) assays in FL5-12 cells; assay type: cell-based, murine
Procedure: as §1

Substance: miR-19: miRNA of the 17˜92 cluster, UGUGCAAAUCCAUGCAAAACUGA (SEQ ID NO: 2); seed family in Table 3 (expressed or natural sequence; listed as Homo sapiens)
- regulation of tumor suppressor genes [1]: regulates PTEN and BCL2L11 expression
- enrichment of miRNA/GFP-expressing FL5-12 cells over parental cells upon IL3 depletion ([2]; competition experiment, FACS): rapidly enriched over parental cells upon IL3 depletion
- IL-3 independence of FL5-12 cells ([2]; retest of individual miRNAs from secondary library screen): confer IL-3 independence on FL5-12 cells
- enrichment of GFP-expressing FL5-12/Bcl2 cells [3]: continued enrichment in the presence of Bcl2
- Viability ([4]; FL5-12 cells withdrawn from IL3 for 48 h): 82%±1.5%
- S-phase fraction ([4]; synchronized FL5-12 cells 24 h after release): 24.5%±0.5
